Experimental data as given in patent US20200339625A1, “NOVEL RADIOMETAL-BINDING COMPOUNDS FOR DIAGNOSIS OR TREATMENT OF PROSTATE SPECIFIC MEMBRANE ANTIGEN-EXPRESSING CANCER” (PROVINCIAL HEALTH SERVICES AUTHORITY, priority 2017, published 2020).

Experiments:
[1] = tested on: mice bearing LNCaP tumor xenografts; assay: PET/CT imaging of 68Ga-labeled compounds; format: in vivo
Description: 2.17 PET/CT Imaging and Biodistribution
(§1) Imaging and biodistribution experiments were performed using NODSCID 1L2RyKO male mice. Mice were anesthetized by inhalation with 2% isoflurane in oxygen, and implanted subcutaneously with 1×10^7 LNCaP cells behind left shoulder. Mice were imaged or used in biodistribution studies when the tumor grew up to reach 5-8 mm in diameter during 5-6 weeks.
PET imaging experiments were conducted using Siemens Inveon micro PET/CT scanner. Each tumor bearing mouse was injected 6-8 MBq of 68Ga-labeled tracer through the tail vein under anesthesia (2% isoflurane in oxygen). The mice were allowed to recover and roam freely in their cage. After 50 min, the mice were sedated again with 2% isoflurane in oxygen inhalation and positioned in the scanner. A 10-min CT scan was conducted first for localization and attenuation correction after segmentation for reconstructing the PET images. Then, a 10-min static PET imaging was performed to determined uptake in tumor and other organs. The mice were kept warm by a heating pad during acquisition. For imaging studies acquired at 3 h post-injection (p.i.), the mice were placed in the micro PET/CT scanner at 170 min p.i. Then, the CT acquisitions were conducted as described above, a 15-min static PET imaging was performed to determined uptake in tumor and other organs.

[2] = tested on: mice bearing PSMA-expressing LNCAP cancer xenografts; assay: Biodistribution of 68Ga-labeled compounds; format: in vivo
Description: as §1
For biodistribution studies, the mice were injected with the radiotracer as described above. At predetermined time points (1 or 3 h), the mice was anesthetized with 2% isoflurane inhalation, and euthanized by CO2 inhalation. Blood was withdrawn immediately from the heart, and the organs/tissues of interest were collected. The collected organs/tissues were weighed and counted using an automatic gamma counter. The uptake in each organ/tissue was normalized to the injected dose using a standard curve, and expressed as the percentage of the injected dose per gram of tissue (% ID/g).

SMILES: O=C([O-])CN1CCN(CC(=O)[O-])CCN(CC(=O)NCCCC[C@H](NC(=O)CNC(=O)CCCc2ccc(F)cc2)C(=O)NC[C@H]2CC[C@H](C(=O)N[C@@H](Cc3ccc4ccccc4c3)C(=O)NCCCC[C@H](NC(=O)N[C@@H](CCC(=O)O)C(=O)O)C(=O)O)CC2)CCN(CC(=O)[O-])CC1.[68Ga+3] [^68Ga-HTK03085]
- change of tumor uptake from 1 h to 3 h post-injection ([1]; PET/CT images): increases over time
- excretion pathway ([1]; PET/CT images): excreted mainly by the renal pathway
- blood retention (qualitative) ([1]; PET/CT images at 1 h and 3 h post-injection, comparison within the figure): significantly higher blood retention
- Adrenal glands uptake ([2]; 1 h post-injection): 3.57 ± 1.09 % ID/g
- Blood uptake ([2]; 1 h post-injection): 5.73 ± 0.93 % ID/g
- Bone uptake ([2]; 1 h post-injection): 0.34 ± 0.08 % ID/g
- Brain uptake ([2]; 1 h post-injection): 0.08 ± 0.01 % ID/g
- Fat uptake ([2]; 1 h post-injection): 1.36 ± 0.28 % ID/g
- Heart uptake ([2]; 1 h post-injection): 1.46 ± 0.27 % ID/g
- Intestine uptake ([2]; 1 h post-injection): 0.61 ± 0.10 % ID/g
- Kidneys uptake ([2]; 1 h post-injection): 85.8 ± 8.36 % ID/g
- Lacrimal uptake ([2]; 1 h post-injection): 0.11 ± 0.06 % ID/g
- Liver uptake ([2]; 1 h post-injection): 1.01 ± 0.29 % ID/g
- Lungs uptake ([2]; 1 h post-injection): 3.67 ± 0.72 % ID/g
- Muscle uptake ([2]; 1 h post-injection): 0.58 ± 0.08 % ID/g
- Pancreas uptake ([2]; 1 h post-injection): 0.86 ± 0.09 % ID/g
- Salivary uptake ([2]; 1 h post-injection): 2.61 ± 0.59 % ID/g
- Seminal uptake ([2]; 1 h post-injection): 1.42 ± 2.17 % ID/g
- Spleen uptake ([2]; 1 h post-injection): 3.90 ± 1.57 % ID/g
- Stomach uptake ([2]; 1 h post-injection): 0.24 ± 0.05 % ID/g
- Tail uptake ([2]; 1 h post-injection): 1.79 ± 0.36 % ID/g
- Testes uptake ([2]; 1 h post-injection): 1.03 ± 0.12 % ID/g
- Thyroid uptake ([2]; 1 h post-injection): 1.70 ± 0.25 % ID/g
- Tumor uptake ([2]; 1 h post-injection): 18.8 ± 3.35 % ID/g
- Tumor:Blood ratio ([2]; 1 h post-injection): 3.33 ± 0.75
- Tumor:Muscle ratio ([2]; 1 h post-injection): 33.2 ± 7.91
- Tumor:kidney ratio ([2]; 1 h post-injection): 0.22 ± 0.03
- Urine uptake ([2]; 1 h post-injection): 181 ± 97.2 % ID/g
- Adrenal glands uptake ([2]; 3 h post-injection): 1.37 ± 0.48 % ID/g
- Blood uptake ([2]; 3 h post-injection): 2.10 ± 0.48 % ID/g
- Bone uptake ([2]; 3 h post-injection): 0.13 ± 0.04 % ID/g
- Brain uptake ([2]; 3 h post-injection): 0.04 ± 0.01 % ID/g
- Fat uptake ([2]; 3 h post-injection): 0.70 ± 0.13 % ID/g
- Heart uptake ([2]; 3 h post-injection): 0.52 ± 0.09 % ID/g
- Intestine uptake ([2]; 3 h post-injection): 0.39 ± 0.08 % ID/g
- Kidneys uptake ([2]; 3 h post-injection): 63.4 ± 16.6 % ID/g
- Lacrimal uptake ([2]; 3 h post-injection): 0.04 ± 0.07 % ID/g
- Liver uptake ([2]; 3 h post-injection): 0.61 ± 0.08 % ID/g
- Lungs uptake ([2]; 3 h post-injection): 1.50 ± 0.26 % ID/g
- Muscle uptake ([2]; 3 h post-injection): 0.31 ± 0.08 % ID/g
- Pancreas uptake ([2]; 3 h post-injection): 0.35 ± 0.09 % ID/g
- Salivary uptake ([2]; 3 h post-injection): 1.03 ± 0.33 % ID/g
- Seminal uptake ([2]; 3 h post-injection): 0.21 ± 0.08 % ID/g
- Spleen uptake ([2]; 3 h post-injection): 1.05 ± 0.09 % ID/g
- Stomach uptake ([2]; 3 h post-injection): 0.16 ± 0.09 % ID/g
- Tail uptake ([2]; 3 h post-injection): 0.60 ± 0.15 % ID/g
- Testes uptake ([2]; 3 h post-injection): 0.60 ± 0.09 % ID/g
- Thyroid uptake ([2]; 3 h post-injection): 0.64 ± 0.10 % ID/g
- Tumor uptake ([2]; 3 h post-injection): 28.9 ± 4.27 % ID/g
- Tumor:Blood ratio ([2]; 3 h post-injection): 14.2 ± 2.77
- Tumor:Muscle ratio ([2]; 3 h post-injection): 95.8 ± 20.9
- Tumor:kidney ratio ([2]; 3 h post-injection): 0.48 ± 0.11
- Urine uptake ([2]; 3 h post-injection): 141 ± 54.3 % ID/g
